Laboratory results from US8617827B2, “Photoactivable fluorescent dyes for optical microscopy and imaging techniques” (Max-Planck-Gesellschaft zur Foerderung der Wissenschaften …, priority 2009, dated 2013).

Key:
[1] = UV absorption and fluorescence spectra in solution; type: physicochemical; settings: for absorption maximum (abs.) / emission maximum (em.): in MeOH, approximate, comparison
[2] = Preparative photolysis in methanol, light >320 nm; type: physicochemical; settings: MeOH, under N2, ambient temperature
Description: Diazoketone 10 was subjected to photolysis in methanol in order to study the product distribution. Light with wavelengths >320 nm was used. The result of this experiment is presented in Scheme 6.
NMR spectra were recorded with Varian MERCURY 300 spectrometer at 300 (^1H) and 75.5 MHz (^13C and APT). All spectra are referenced to tetramethylsilane as an internal standard (δ=0 ppm) using the signals of the residual protons of CHCl3 (7.26 ppm) in CDCl3, CHD2OD (3.31 ppm) in CD3OD, HOD (4.79 ppm) in D2O or [D5] DMSO (2.50 ppm) in [D6] DMSO. Multiplicities of signals are described as follows: s=singlet, br. s=broad singlet, d=doublet, br. d=broad doublet, t=triplet, q=quartet, m=multiplet. Coupling constants (J) are given in Hz. Multiplicities in the ^13C NMR spectra were determined by APT (Attached Proton Test) measurements. […] Analytical TLC was performed on MERCK ready-to-use plates with silica gel 60 (F254). […]
Photolysis of diazoketone 10: A solution of compound 10 (70 mg, 0.15 mmol) in MeOH (150 mL) was placed into a reactor for photolysis, and nitrogen was bubbled for 30 min through the solution at room temperature with stirring. Then the lamp was turned on, and the reaction mixture was irradiated at ambient temperature with stirring under N2 for 40 min, until the starting compound could not be detected on TLC. […]

Molecule	absorption maximum (abs.) [1]	emission maximum (em.) [1]	UV λmax ([1]; MeCN)	ε at λmax ([1]; MeCN)	irradiation time until starting compound could not be detected [2]
5/6-carboxy rhodamine Q	ca. 540 nm	about 560 nm	–	–	–
CCN(CC)c1ccc2c(c1)Oc1cc(N(CC)CC)ccc1C21C(=[N+]=[N-])C(=O)c2ccccc21 [Compound 10]	–	–	241 nm	59700	40 min
CN(C)c1ccc2c(-c3ccccc3C(=O)[O-])c3ccc(N(C)C)cc3[o+]c2c1 [TMR, N,N,N′,N′-Tetramethylrhodamine]	about 560 nm	ca. 580 nm	–	–	–
CCN(CC)c1ccc2c(-c3ccccc3C(=O)O)c3ccc(=[N+](CC)CC)cc-3oc2c1.[Cl-] [rhodamine B, Rhodamine B]	about 560 nm	ca. 580 nm	–	–	–
